In patent publication US20240277744A1, “TREATMENT OF CHEMORESISTANT CANCER CELLS” (Cornell University, priority 2023, published 2024):
Where a name gives a salt, the structure may show the parent alone. Each block holds one compound with its values, some of them ahead of it.

What was measured:
A549 cell line = test: Flow cytometry of TRA-1-81+ cells; format: cell-based
Experimental: (§1) Flow cytometry. TRA-1-60 PerCP-efluor710 (eBioscience, 1:50) and TRA-1-81 PE (eBioscience, 1:100) were used. Cells were blocked with 5% FBS plus mouse IgM isotype control antibody (eBioscience, 1:100) at room temperature for 15 min, then stained on ice for 30 min. Stained cells were resuspended in PBS containing 300 nM DAPI and proceeded to analysis or sorting. Cell apoptosis was analyzed with FITC-AnnexinV labeling reagent (BD). Flow cytometry analysis was carried out on BD FACS Calibur with FlowJo 9.8 software. Sorting was performed with FACSVantage SE (Becton Dickinson).

TRA-1-81+ SW1990 cells = test: Flow cytometry of TRA-1-81+ cells; format: cell-based; conditions: SW1990; 5 days; GEM 50, 100 or 250 nM; flow cytometry
Experimental: as §1

SW1990 cells = test: Cell viability (DAPI nuclei count, high content imaging); format: cell-based; conditions: Homo sapiens; parental SW1990; read-out: IC50 for GEM (viability)
Experimental: (§2) Cell viability, colony formation, sphere formation and growth curve. To quantify viability, cells were plated into 96-well plates (6000/well) one night before treatment. […] After fixation, cell nuclei were stained with DAPI (Invitrogen). Plates were analyzed using MetaXpress High Content Image Acquisition and Analysis System (Molecular Devices).

SW1990 xenograft tumors [1] = test: GEM-resistant SW1990 xenograft passaged in nude mice; conditions: 50 mg/kg GEM i.p. twice a week, 3 passages in vivo, vs PBS control
Experimental: Whether the epitope of TRA-1-60 and TRA-1-81 antibodies also enriches CCCs in vivo, with xenograft tumors in nude mice derived from SW1990 cells implanted subcutaneously, was examined. Mice carrying tumors were randomly separated into two groups: one was treated with 50 mg/kg GEM via intraperitoneal injection twice a week for 4 weeks; the other was treated with the same volume of PBS as control. After 3 passages in vivo (˜6 months), the control and GR xenograft tumors were analyzed with immunofluorescence (FIG. 1K).
(§3) Tissue samples were fixed with 4% paraformaldehyde overnight at 4° C., washed with 70% ethanol and then embedded in paraffin. After De-paraffin and rehydration, antigen retrieval was preceded in hot antigen retrieving buffer with a normal-pressure steamer for 30 min. blocking was proceeded 1 hour at room temperature in PBS containing 1% horse serum. Primary antibody was stained overnight at 4° C. in PBS plus 0.5% Triton X-100 and 5% horse serum. Secondary antibody was incubated at room temperature for 1.5 hours.

RKO cell line = test: Flow cytometry of TRA-1-81+ cells; format: cell-based
Experimental: as §1

HT29 cell line = test: Flow cytometry of TRA-1-81+ cells; format: cell-based
Experimental: as §1

DU145 cell line = test: Flow cytometry of TRA-1-81+ cells; format: cell-based; conditions: DU145; flow cytometry
Experimental: as §1

HCT116 cell line = test: Flow cytometry of TRA-1-81+ cells; format: cell-based; conditions: HCT116; flow cytometry
Experimental: as §1

SW1990GR cells = test: Cell viability (DAPI nuclei count, high content imaging); format: cell-based; conditions: GEM-resistant line, read-out: IC50 for GEM (viability)
Experimental: To establish GR cell lines, cells were first cultured with 10 nM GEM till cell growth became stable. […] Once cell growth became stable in 100 nM GEM, cells were expanded in 100 nM GEM and used in assays.
as §2

SW1990 xenograft tumors [2] = test: Luciferase-labeled SW1990 xenograft in nude mice; format: in vivo
Experimental: CYM suppresses TRA-1-60 expression and blocks tumor growth in vivo. Next it was sought to validate the effects of CYM in vivo, using a xenograft model with luciferase-labeled SW1990 cells propagated in nude mice. Tumor-harboring mice were separated into 4 groups and treated with PBS (control), 2 mg/kg CYM, 50 mg/kg GEM, or 2 mg/kg CYM plus 50 mg/kg GEM through intraperitoneal injections twice per week. Luciferase intensity was quantified twice per week and normalized with the value obtained from the starting day. […] Consistent with imaging, of the four groups, mice treated with GEM plus CYM generated xenograft tumors with the smallest size (FIG. 6C) and weight (FIG. 6D).
as §3
Mouse Procedures. To assess in vivo effects of Cymarin (CYM), Luciferase-labelled SW1990 cells were transplanted to nude mice subcutaneously. Each mouse received four injections (5×10^5 cells/site). 12 days later, mice were randomly separated into 4 groups and treated with PBS (control), GEM (50 mg/kg bodyweight), CYM (2 mg/kg bodyweight) or GEM (50 mg/kg bodyweight) plus CYM (2 mg/kg bodyweight) twice weekly via intraperitoneal injection. Image acquisition was performed twice weekly with Xtreme Optical and X-ray small animal imaging system. Luciferin potassium salt (Regis), substrate of luciferase, was applied at 2 mg/25 g bodyweight in 150 μl PBS. Isoflurane (Henry Schein) was used for anesthesia during imaging.

[3] = test system: primary human xenograft tumor; test: Patient derived pancreatic adenocarcinoma xenograft in nude mice; format: in vivo; conditions: 50 mg/kg GEM twice weekly, one month; not in control tumors
Experimental: To examine whether TRA-1-60 expression correlates with chemotherapy treatment in primary tumors, a human pancreatic adenocarcinoma specimen was freshly collected after surgery, transplanted to nude mice and expanded subcutaneously. Mice carrying the primary human xenograft tumor were separated into two groups: one group was treated with 50 mg/kg GEM twice weekly while the other group received the same volume of PBS as control. After one month, xenograft tumors were stained with TRA-1-60 antibody. TRA-1-60 staining was detected in GEM-treated xenograft tumors but not control xenograft tumors (FIG. 7C, D), confirming that TRA-1-60 expression is positively correlated with chemoresistance.
as §3

TRA-1-60+ SW1990GR cells = test: High content screen / immunofluorescent staining of TRA-1-60+ cells; format: cell-based; conditions: SW1990GR
Experimental: Immunofluorescent staining. Primary antibodies were TRA-1-60 antibody (BD, 1:200), biotin conjugated TRA-1-60 antibody (eBioscience, 1:200). Secondary antibodies were donkey anti-mouse Alexa-efluor594 (Life technologies, 1:500) or streptavidin conjugated Alexa Fluor® 594 (Life technologies, 1:200).
Cells were fixed with 10% formalin for 20 min at room temperature. After 1 hour blocking in PBS with 5% horse serum and 0.3% triton-X100, primary antibodies were added to cells and incubated overnight at 4° C. Secondary antibody incubation was 1.5 hours at room temperature.
Chemical library screening. The Prestwick library of FDA approved drugs (˜1280 chemicals) plus a collection of drugs in clinical trials was used for the screen on SW1990GR cells.
For screening, SW1990GR cells were plated in 384-well plates (5000 cells/well). After overnight incubation, chemicals were added at 1 μM or 10 μM in duplicate. After 5 days of treatment, plates were stained with TRA-1-60 antibody and analyzed with MetaXpress High Content Image Acquisition and Analysis System (Molecular Devices). Wells treated with DMSO were set as control. The reduction was calculated by subtracting the percentage of TRA-1-60^+ cells in the chemical-treated wells from that of control wells. Standard deviation of TRA-1-60^+ percentage in control wells was calculated and 3-fold of this value was taken as threshold to pick up the primary hit.

Structure (SMILES): CCc1c2c(nc3ccc(OC(=O)N4CCC(N5CCCCC5)CC4)cc13)-c1cc3c(c(=O)n1C2)COC(=O)[C@]3(O)CC [CPT-11, Irinotecan hydrochloride]
- TRA-1-81+ cell population after acute drug treatment (A549 cell line): significant enhancement
- TRA-1-81+ cell population after acute drug treatment (TRA-1-81+ SW1990 cells): highly enriched

- IC50 (SW1990GR cells): 59.4 ± 5.3 nM
Structure (SMILES): Nc1ccn([C@@H]2O[C@H](CO)[C@@H](O)C2(F)F)c(=O)n1 [GEM, Gemcitabine hydrochloride]
- IC50 (SW1990 cells): 9.6 ± 3.2 nM
- percentage of TRA-1-60+ cells in GR xenograft tumors (SW1990 xenograft tumors [1]): significantly increased
- TRA-1-81+ cell population after acute drug treatment (A549 cell line): significant increase
- TRA-1-81+ cell population after acute GEM treatment (RKO cell line): significant increase
- TRA-1-81+ cell population after acute drug treatment (TRA-1-81+ SW1990 cells): significant increase
- TRA-1-81+ cell population after acute GEM treatment (HT29 cell line): significant increase
- TRA-1-81+ cell population after acute GEM treatment (DU145 cell line): significant increase
- TRA-1-81+ cell population after acute GEM treatment (HCT116 cell line): significant increase
- tumor growth (luciferase intensity) (SW1990 xenograft tumors [2]; 3 weeks, i.p. twice per week, GEM 50 mg/kg, CYM 2 mg/kg): grew more slowly
- percentage of TRA-1-60+ cells in xenograft tumors (SW1990 xenograft tumors [2]; GEM-treated tumors without CYM, immunofluorescence): ~27%
- TRA-1-60 staining in patient derived xenograft tumors [3]: detected

Structure (SMILES): C[C@@H]1O[C@@H](O[C@H]2C[C@@H](O)[C@]3(CO)[C@H]4[C@H](O)C[C@]5(C)[C@@H](C6=CC(=O)OC6)CC[C@]5(O)[C@@H]4CC[C@]3(O)C2)[C@H](O)[C@H](O)[C@H]1O [Ouabain]
- validation of primary hit (TRA-1-60+ SW1990GR cells): able to be validated

Structure (SMILES): Nc1nc2[nH]cc(CCc3ccc(C(=O)N[C@@H](CCC(=O)O)C(=O)O)cc3)c2c(=O)[nH]1 [PMX, Pemetrexed disodium heptahydrate]
- TRA-1-81+ cell population after acute drug treatment (A549 cell line): significant enhancement
- TRA-1-81+ cell population after acute drug treatment (TRA-1-81+ SW1990 cells): highly enriched
